# Assay results taken from patent US9988390B2, “Pyrimidone derivatives and their use in the treatment, amelioration or prevention of a viral disease” (F. Hoffmann-La Roche AG, priority 2015, dated 2018).
# Tested on: influenza A virus (A/WSN/33 NanoLuc reporter virus) in A549 cells
# Assay: microbe, parasite or virus in culture
# Assay type: cell-based
# Conditions: A549, 24 h, read-out: IC50 values of viral replication inhibition in a cell-based Luciferase Reporter Assay (LRA)
row,SMILES,IC50 [nM]
1,"CCOc1nc(=O)c(O)c2n1[C@@H](C(c1ccccc1)c1ccccc1)CN(C(C)C)C2=O [Example 1a-7, (4S)-4-Benzhydryl-6-ethoxy-9-hydroxy-2-isopropyl-3,4-dihydropyrazino[1,2-c]-pyrimidine-1,8-dione]",69
2,"CCOc1nc(=O)c(O)c2n1[C@@H](C1c3ccccc3CCc3ccccc31)CN(C(C)C)C2=O [Example 1a-12, (4S)-4-(10,11-Dihydro-5H-dibenzo[a,d][7]annulen-5-yl)-6-ethoxy-9-hydroxy-2-(propan-2-yl)-3,4-dihydro-2H-pyrazino[1,2-c]pyrimidine-1,8-dione]",24
3,"COc1nc(=O)c(O)c2n1[C@@H](C(c1ccccc1)c1ccccc1)CN(C)C2=O [Ia-65, (4S)-4-Benzhydryl-9-hydroxy-6-methoxy-2-methyl-3,4-dihydropyrazino[1,2-c]pyrimidine-1,8-dione]",26
4,"CC(C)N1C[C@H](C2c3ccccc3CCc3ccccc32)n2c(S(C)(=O)=O)nc(=O)c(O)c2C1=O [Ia-76, (4S)-4-(6,11-Dihydro-5H-dibenzo[2,1-b:1′,2′-e][7]annulen-11-yl)-9-hydroxy-2-isopropyl-6-methylsulfonyl-3,4-dihydropyrazino[1,2-c]pyrimidine-1,8-dione]",13
5,"CCS(=O)(=O)c1nc(=O)c(O)c2n1[C@@H](C(c1ccccc1)c1ccccc1)CN(C(C)C)C2=O [Ia-39, (4S)-4-Benzhydryl-6-ethylsulfonyl-9-hydroxy-2-isopropyl-3,4-dihydropyrazino[1,2-c]pyrimidine-1,8-dione]",470
6,"CCc1nc(=O)c(O)c2n1[C@@H](C(c1ccccc1)c1ccccc1)CN(C(C)C)C2=O [Ia-41, (4S)-4-Benzhydryl-6-ethyl-9-hydroxy-2-isopropyl-3,4-dihydropyrazino[1,2-c]pyrimidine-1,8-dione]",77
7,"COC(=O)Nc1nc(=O)c(O)c2n1[C@@H](C(c1ccccc1)c1ccccc1)CN(C(C)C)C2=O [Ia-56, Methyl N-[(4S)-4-benzhydryl-9-hydroxy-2-isopropyl-1,8-dioxo-3,4-dihydropyrazino[1,2-c]pyrimidin-6-yl]carbamate]",200
8,"COc1nc(=O)c(O)c2n1[C@@H](C(c1ccccc1)c1ccccc1)CN([C@H](C)C(F)(F)F)C2=O [Ia-66, (4S)-4-Benzhydryl-9-hydroxy-6-methoxy-2-[(1R)-2,2,2-trifluoro-1-methyl-ethyl]-3,4-dihydropyrazino[1,2-c]pyrimidine-1,8-dione]",26
9,"CC(C)N1C[C@H](C2c3ccccc3CCc3ccccc32)n2c(N)nc(=O)c(O)c2C1=O [Example 1a-5, (4S)-6-Amino-4-(10,11-dihydro-5H-dibenzo[a,d][7]annulen-5-yl)-9-hydroxy-2-(propan-2-yl)-3,4-dihydro-2H-pyrazino[1,2-c]pyrimidine-1,8-dione]",> 50000
10,"COc1nc(=O)c(O)c2n1C(C(c1ccccc1)c1ccccc1Br)CN(C)C2=O (stereo not shown) [Ia-70, 4-[(2-Bromophenyl)-phenyl-methyl]-9-hydroxy-6-methoxy-2-methyl-3,4-dihydropyrazino[1,2-c]pyrimidine-1,8-dione]",27
11,"CC(C)N1C[C@H](C(c2ccccc2)c2ccccc2)n2c(c(O)c(=O)n(C)c2=O)C1=O [Example 1b-1, (4S)-4-Benzhydryl-9-hydroxy-2-isopropyl-7-methyl-3,4-dihydropyrazino[1,2-c]pyrimidine-1,6,8-trione]",1660
12,"CNc1nc(=O)c(O)c2n1[C@@H](C(c1ccccc1)c1ccccc1)CN(C(C)C)C2=O [Ia-49, (4S)-4-Benzhydryl-9-hydroxy-2-isopropyl-6-(methylamino)-3,4-dihydropyrazino[1,2-c]pyrimidine-1,8-dione]",880
13,"CC(C)N1C[C@H](C(c2ccccc2)c2ccccc2)n2c(S)nc(=O)c(O)c2C1=O [Ia-28, (4S)-4-benzhydryl-9-hydroxy-2-isopropyl-6-sulfanyl-3,4-dihydropyrazino[1,2-c]pyrimidine-1,8-dione]",61
14,"CC(C)N1C[C@H](C(c2ccccc2)c2ccccc2)n2c(NCc3ccccc3)nc(=O)c(O)c2C1=O [Example 1a-1, (4S)-4-Benzhydryl-6-(benzylamino)-9-hydroxy-2-isopropyl-3,4-dihydropyrazino[1,2-c]pyrimidine-1,8-dione]",153
15,"COc1nc(=O)c(O)c2n1[C@@H](C1c3ccccc3CCc3ccccc31)CN(C)C2=O [Example 1a-9, (4S)-4-(10,11-Dihydro-5H-dibenzo[a,d][7]annulen-5-yl)-9-hydroxy-6-methoxy-2-methyl-3,4-dihydro-2H-pyrazino[1,2-c]pyrimidine-1,8-dione]",6
16,"CC(C)N1C[C@H](C(c2ccccc2)c2ccccc2)n2c(NC(C)C(F)(F)F)nc(=O)c(O)c2C1=O (stereo partly drawn) [Ia-37, (4S)-4-Benzhydryl-9-hydroxy-2-isopropyl-6-[(2,2,2-trifluoro-1-methyl-ethyl)amino]-3,4-dihydropyrazino[1,2-c]pyrimidine-1,8-dione]",516
17,"CC(C)N1C[C@H](C2c3ccccc3CCc3ccccc32)n2c(NCC(F)(F)F)nc(=O)c(O)c2C1=O [Ia-34, (4S)-4-(6,11-Dihydro-5H-dibenzo[2,1-b:1′,2′-e][7]annulen-11-yl)-9-hydroxy-2-isopropyl-6-(2,2,2-trifluoroethylamino)-3,4-dihydropyrazino[1,2-c]pyrimidine-1,8-dione]",50
18,"COc1nc(=O)c(O)c2n1C(C(c1ccc(Cl)cc1)c1ccc(Cl)cc1)CN(C(C)C)C2=O (stereo not shown) [Ia-63, 4-[Bis(4-chlorophenyl)methyl]-9-hydroxy-2-isopropyl-6-methoxy-3,4-dihydropyrazino[1,2-c]pyrimidine-1,8-dione]",302
19,"CC(C)N1C[C@H](C(c2ccccc2)c2ccccc2)n2c(CO)nc(=O)c(O)c2C1=O [Ia-74, (4S)-4-Benzhydryl-9-hydroxy-6-(hydroxymethyl)-2-isopropyl-3,4-dihydropyrazino[1,2-c]pyrimidine-1,8-dione]",125
20,"CC(C)Nc1nc(=O)c(O)c2n1[C@@H](C(c1ccccc1)c1ccccc1)CN(C(C)C)C2=O [Ia-35, (4S)-4-Benzhydryl-9-hydroxy-2-isopropyl-6-(isopropylamino)-3,4-dihydropyrazino[1,2-c]pyrimidine-1,8-dione]",324
21,"CC(C)N1C[C@H](C(c2ccccc2)c2ccccc2)n2c([S+](C)[O-])nc(=O)c(O)c2C1=O (stereo partly drawn) [Ia-26, (4S)-4-Benzhydryl-9-hydroxy-2-isopropyl-6-methylsulfinyl-3,4-dihydropyrazino[1,2-c]pyrimidine-1,8-dione]",127
22,"CC(C)N1C[C@H](C(c2ccccc2)c2ccccc2)n2c(C#N)nc(=O)c(O)c2C1=O [Ia-51, (4S)-4-Benzhydryl-9-hydroxy-2-isopropyl-1,8-dioxo-3,4-dihydropyrazino[1,2-c]pyrimidine-6-carbonitrile]",368

# Same assay, conditions: A549, isomers identified by X-ray analysis, read-out: IC50
row,SMILES,IC50 [nM]
1,"COc1nc(=O)c(O)c2n1[C@H]([C@H]1c3ccccc3CSc3ccccc31)CN(C(C)C)C2=O (single isomer, unassigned) [Example 17]",28
2,"COc1nc(=O)c(O)c2n1[C@@H]([C@H]1c3ccccc3CSc3ccccc31)CN(C(C)C)C2=O (single isomer, unassigned) [Example 14]",2
3,"COc1nc(=O)c(O)c2n1[C@@H]([C@@H]1c3ccccc3CSc3ccccc31)CN(C(C)C)C2=O (single isomer, unassigned) [Example 16]",4
